The subject of one series is ddY strain male mice. The series can be described thus: Acute toxicity, minimum lethal dose. It is filed as in vivo. Particulars: mortality for 7 days. The protocol: The test Compound was orally and intraperitoneally administered to ddY strain male mice weighing 20 to 25 g. MLD (Minimum Lethal Dose) was determined by observing the mortality for 7 days after the administration.

The next series has as its system 5HT3 receptor. The series is described as follows: 5HT3 receptor binding test, [3H] quipazine, NG108-15 cell membrane fraction. The arrangement: species or system rat. To be noted: for Inhibition Rate (%) (Concentration 10^-7 M) / Inhibition Rate (%) (Concentration 10^-8 M): inhibition of 2 nM [3H] quipazine binding; for Ki: [3H] quipazine, Cheng Prusoff equation, 37° C., 60 minutes. As for the experimental part: Using rat neuroblastoma-glyoma NG108-15 cell membrane fraction, the binding activities of the test compounds to 5HT3 receptor were examined.
A membrane fraction of NG108-15 cells was prepared according to the method of Neijt et al. [Naunyn-Schmiedeberg's Arch. Parmacol. 337, 493-499 (1988)].
The receptor binding experiment was performed using [^3 H] quipazine [J. Neurochem., 52, 1787 (1989)], a high affinity ligand to 5HT3 receptor.
A membrane fraction obtained from 4×10^5 NG108-15 cells was suspended in 1 ml of 20 mM Tris-hydrochloride buffer (pH 7.5) containing 154 mM sodium chloride. Then, 2 nM [^3 H] quipazine (2519.7 GBq/mmol; Du Pont Co., Ltd.) and various concentrations of the test compound were added to the suspension followed by incubating at 37° C. for 60 minutes. Then, 4 ml of an ice-cooled buffer was added to terminate the reaction and then the mixture was filtered through CF/C glass fiber filter (Whatmann Co., Ltd.). The filter was washed with the buffer, and put in a scintillation vial. Scintisol EX-H (Wako Pure Chemicals, Inc.) was added to the scintillation vial. Radioactivity on the filter was counted in a liquid scintillation counter.
An inhibition rate of the [^3 H] quipazine binding for the test compound was estimated according to the equation; [formula]
Ki values were estimated based on the resultant inhibition rates according to the Cheng Prusoff equation.
In this test, the comparison was made between Compound (I) and Compound C disclosed in Japanese Published Unexamined Patent Application No. 72886/85 as the reference compound.

Series [1] has as its system Cisplatin-induced vomiting. The series is described as follows: Activity against Cisplatin-induced vomiting. It is filed as in vivo, Suncus mirinus. To be noted: for Number of Vomiting (mean ± S.E.M.): 5 to 120 minutes; for Latency (min.) (mean ± S.E.M.): time to first vomiting. The protocol:
Female and male Suncus mirinus animals weighing 23 to 68 g were used, one group consisting of 5 to 10 animals. According to the method of Matsuki et al. (Japan J. Pharmacol., 48, 303 (1988)], the animals were isolated in metal mesh cage (one animal/one cage). One hour after, the test compound or physiological saline (control) was intraperitoneally administered (i.p.) in a volume of 10 ul/g of body weight. Further 30 minutes after administration of the test compound, Cisplatin (20 or 40 mg/kg) was intraperitoneally administered. After administration of Cisplatin, a time period (latency) for the first vomiting and the number of frequencies of vomiting caused in the period of 5 to 120 minutes after administration, were determined. The latency and the number of frequencies in the test compound administered group were compared with those in the control group. The test of significance was performed by Student's t-test.

Where [2] appears, read: 0.1 mg/kg i.p., Cisplatin 40 mg/kg.
[3] abbreviates: 0.3 mg/kg i.p., Cisplatin 40 mg/kg.
The mark [4] stands for this setting: 1.0 mg/kg i.p., Cisplatin 40 mg/kg.
The mark [5] stands for this setting: 10.0 mg/kg i.p., Cisplatin 40 mg/kg.
Setting [6] is: 0.01 mg/kg i.p., Cisplatin 20 mg/kg.
Setting [7] is: 0.03 mg/kg i.p., Cisplatin 20 mg/kg.
Setting [8] is: 0.1 mg/kg i.p., Cisplatin 20 mg/kg.
Setting [9] is: 0.3 mg/kg i.p., Cisplatin 20 mg/kg.
Setting [10] is: 1.0 mg/kg i.p., Cisplatin 20 mg/kg.

Eleven compounds from patent publication US5319085A, “Quinoline derivative having serotonin-3 receptor antagonizing activity” (priority 1990, dated 1994) can be followed below.

A value given as a limit tells only on which side of the number the result lay.

The term Ki denotes the dissociation constant of the complex between target and ligand, obtained from inhibition or displacement. For the compound `CN1[C@@H]2CC[C@H]1C[C@@H](OC(=O)c1cnc3ccccc3c1O)C2` [5S'a, Endo-(8-methyl-8-azabicyclo[3.2.1]oct-3-yl) 4-hydroxy-3-quinolinecarboxylate], the “MLD (Minimum Lethal Dose)” value in the series with ddY strain male mice (i.p.) is greater than 300 mg/kg; in the series with ddY strain male mice (p.o.), greater than 100 mg/kg. The “Inhibition Rate (%) (Concentration 10^-7 M)” value in the series on 5HT3 receptor was determined as 107%. Moreover, the inhibitory constant (Ki) in the series with 5HT3 receptor turned out to be 6.1 nM. Moreover, the “Number of Vomiting (mean ± S.E.M.)” value in series [1] (setting [2]) is given as 29.6 ± 3.5; in series [1] (setting [3]) it was 13.2 ± 4.8; in series [1] (setting [4]), 4.3 ± 2.4; in series [1] (setting [5]) it was 7.6 ± 7.6. Besides, the “Latency (min.) (mean ± S.E.M.)” value in series [1] (setting [2]) turned out to be 41.4 ± 0.7 min; in series [1] (setting [3]), 69.6 ± 13.4 min; in series [1] (setting [4]), 103.5 ± 10.3 min; in series [1] (setting [5]), 105.1 ± 14.9 min.
On to `CN1[C@@H]2CCC[C@H]1C[C@@H](OC(=O)c1cnc3ccccc3c1)C2` [CSa, Endo-(9-methyl-9-azabicyclo[3.3.1]non-3-yl) 3-quinolinecarboxylate, reference compound], for which, in the series with 5HT3 receptor, the “Inhibition Rate (%) (Concentration 10^-7 M)” value came to 84%, the “Inhibition Rate (%) (Concentration 10^-8 M)” value is 12% and the affinity corresponds to a Ki of 29 nM.
Take `CCCCOc1cc(C(=O)O[C@H]2C[C@H]3CC[C@@H](C2)N3C)c2ccccc2n1` [Compound 1Sa, Endo-(8-methyl-8-azabicyclo[3.2.1]oct-3-yl) 2-n-butoxy-4-quinolinecarboxylate]: in the series on ddY strain male mice (i.p.), the “MLD (Minimum Lethal Dose)” value is on record as 200 mg/kg. Moreover, the “MLD (Minimum Lethal Dose)” value in the series with ddY strain male mice (p.o.) is 100 mg/kg. Besides, in the series with 5HT3 receptor, the “Inhibition Rate (%) (Concentration 10^-7 M)” value was 104%, the “Inhibition Rate (%) (Concentration 10^-8 M)” value was 99% and the Ki was 0.39 nM.
Consider `CCCOc1cc(C(=O)O[C@H]2C[C@H]3CC[C@@H](C2)N3C)c2ccccc2n1` [Compound 2Sa, Endo-(8-methyl-8-azabicyclo[3.2.1]oct-3-yl) 2-n-propoxy-4-quinolinecarboxylate], for which the “MLD (Minimum Lethal Dose)” value with ddY strain male mice (i.p.) is listed as 100 mg/kg. Moreover, the “MLD (Minimum Lethal Dose)” value with ddY strain male mice (p.o.) was determined as 100 mg/kg. In the series on 5HT3 receptor, the “Inhibition Rate (%) (Concentration 10^-7 M)” value is 104%, the “Inhibition Rate (%) (Concentration 10^-8 M)” value was 101% and the Ki is 0.32 nM.
For the compound `CC(C)Oc1cc(C(=O)O[C@H]2C[C@H]3CC[C@@H](C2)N3C)c2ccccc2n1` [Compound 3Sa, Endo-(8-methyl-8-azabicyclo[3.2.1]oct-3-yl) 2-isopropoxy-4-quinolinecarboxylate], the “MLD (Minimum Lethal Dose)” value in the series with ddY strain male mice (i.p.) worked out at 200 mg/kg. Besides, the “MLD (Minimum Lethal Dose)” value in the series on ddY strain male mice (p.o.) is on record as greater than 100 mg/kg. In the series on 5HT3 receptor, the “Inhibition Rate (%) (Concentration 10^-7 M)” value is recorded as 104%, the “Inhibition Rate (%) (Concentration 10^-8 M)” value worked out at 101% and the inhibitory constant (Ki) was determined as 0.31 nM.
The matching figures for `COc1cc(C(=O)O[C@H]2C[C@H]3CC[C@@H](C2)N3C)c2ccccc2n1` [Compound 4Sa, Endo-(8-methyl-8-azabicyclo[3.2.1]oct-3-yl) 2-methoxy-4-quinolinecarboxylate]: 200 mg/kg, 50 mg/kg, 104%, 98% and 0.58 nM.
Consider `CN1[C@@H]2CC[C@H]1C[C@@H](NC(=O)c1cnc3ccccc3c1O)C2` [Compound 6Sa, Endo-N-(8-methyl-8-azabicyclo[3.2.1]oct-3-yl)-4-hydroxy-3-quinolinecarboxamide], for which the results for the “MLD (Minimum Lethal Dose)” value in the series on ddY strain male mice (i.p.) and with ddY strain male mice (p.o.) were greater than 300 mg/kg and greater than 100 mg/kg, respectively. In addition, the “Inhibition Rate (%) (Concentration 10^-7 M)” value in the series with 5HT3 receptor was 101%. For the same compound, the “Inhibition Rate (%) (Concentration 10^-8 M)” value in the series on 5HT3 receptor was 89%. Also, affinity with 5HT3 receptor was put at a Ki of 2.1 nM. In addition, the “Number of Vomiting (mean ± S.E.M.)” value in series [1] (setting [6]) was found to be 10.0 ± 4.0; in series [1] (setting [7]), 8.2 ± 1.4; in series [1] (setting [8]), 7.4 ± 2.6; in series [1] (setting [9]) it was 0.0 ± 0; in series [1] (setting [10]) it was 0.0 ± 0. The “Latency (min.) (mean ± S.E.M.)” value worked out at 58.2 ± 9.9 min in series [1] (setting [6]); 52.6 ± 4.2 min in series [1] (setting [7]); 85.7 ± 9.7 min in series [1] (setting [8]); 120.0 ± 0 min in series [1] (setting [9]); 120.0 ± 0 min in series [1] (setting [10]).
Consider `CC(C)COc1cc(C(=O)O[C@H]2C[C@H]3CC[C@@H](C2)N3C)c2ccccc2n1` [Compound 7Sa, Endo-(8-methyl-8-azabicyclo[3.2.1]oct-3-yl) 2-isobutoxy-4-quinolinecarboxylate], for which the “MLD (Minimum Lethal Dose)” value in the series on ddY strain male mice (i.p.) amounted to 300 mg/kg. For the same compound, the “MLD (Minimum Lethal Dose)” value in the series on ddY strain male mice (p.o.) is given as greater than 100 mg/kg. In the series with 5HT3 receptor, the “Inhibition Rate (%) (Concentration 10^-7 M)” value is listed as 108%, the “Inhibition Rate (%) (Concentration 10^-8 M)” value was found to be 101% and the Ki came to 0.44 nM.
The matching figures for `CCCCCOc1cc(C(=O)O[C@H]2C[C@H]3CC[C@@H](C2)N3C)c2ccccc2n1` [Compound 8Sa, Endo-(8-methyl-8-azabicyclo[3.2.1]oct-3-yl) 2-n-pentyloxy-4-quinolinecarboxylate]: greater than 300 mg/kg, greater than 100 mg/kg, 97%, 94% and 0.86 nM.
Turning to `CCCCCCOc1cc(C(=O)O[C@H]2C[C@H]3CC[C@@H](C2)N3C)c2ccccc2n1` [Compound 9Sa, Endo-(8-methyl-8-azabicyclo[3.2.1]oct-3-yl) 2-n-hexyloxy-4-quinolinecarboxylate], in the series with ddY strain male mice (i.p.), the “MLD (Minimum Lethal Dose)” value is greater than 300 mg/kg. For the same compound, the “MLD (Minimum Lethal Dose)” value in the series with ddY strain male mice (p.o.) is 50 mg/kg. In the series with 5HT3 receptor, the “Inhibition Rate (%) (Concentration 10^-7 M)” value turned out to be 97%, the “Inhibition Rate (%) (Concentration 10^-8 M)” value is 74% and the Ki came out at 3.2 nM.
Turning to `CCOc1cc(C(=O)O[C@H]2C[C@H]3CC[C@@H](C2)N3C)c2ccccc2n1` [Compound 10Sa, Endo-(8-methyl-8-azabicyclo[3.2.1]oct-3-yl) 2-ethoxy-4-quinolinecarboxylate], in the series on ddY strain male mice (i.p.), the “MLD (Minimum Lethal Dose)” value came to 100 mg/kg. For the same compound, the “MLD (Minimum Lethal Dose)” value in the series on ddY strain male mice (p.o.) was 50 mg/kg. In addition, in the series on 5HT3 receptor, the “Inhibition Rate (%) (Concentration 10^-7 M)” value came to 99%, the “Inhibition Rate (%) (Concentration 10^-8 M)” value is reported as 96% and the Ki amounted to 0.88 nM.
